Results as given in PMC6222787, “Anti-Inflammatory Activities of Compounds Isolated from the Rhizome of Anemarrhena asphodeloides” (Molecules : A Journal of Synthetic Chemistry and Natural …, 2018).
Where two headings read alike, the source gives them in different places.

Experiments:
[1] = tested on: LPS-induced NO production in N9 microglial cells; assay: LPS-induced NO production (Griess assay); format: cell-based, mouse; settings: for Nitrite: control 4.60, LPS group 31.81 μM; for Nitrite / inhibition at 25 µM / inhibition at 50 µM / % Inhibition of NO Production: mean ± S.E.M.; for inhibition at 25 µM / inhibition at 50 µM: Mus musculus
Experimental: Figure 2 Inhibitory effects of TBIII (A) and t-HL (B) in LPS-stimulated N9 microglial cells. Cells were pretreated with different concentrations of TBIII and t-HL 1 h prior to the addition of LPS (100 ng/mL) and were further incubated for 24 h. NO production was determined by using the Griess reagent. IC50 values and curve fitting were determined using Graphpad Prism (GraphPad, Avenida, CA, USA).
Accumulation of nitrite, a metabolite of NO in the culture media, was measured by Griess assay as previously reported. Briefly, cells were stimulated with 100 ng/mL of LPS for 24 h in the presence of the test compounds (0–50 μM).

[2] = MTT assay for cell viability; settings: mouse, N9 microglial cells, % Cell Viability, 24 h, MTT, mean ± S.E.M.; for viability at 24 h, 25 µM: 25 μM compound; for viability at 24 h, 50 µM: 50 μM compound
Experimental: (§1) The N9 microglial cell line was obtained from China Cell Line Bank. The cells were grown at 37 °C in IMDM supplemented with 10% heat-inactivated FBS under a humidified atmosphere of 5% CO2. In this experiment, cells were allowed to acclimate for 24 h before treatments.
(§2) Cell viability was evaluated by the MTT reduction assay [36]. Cells were seeded in 96-well plates at a density of 2 × 10^4 cells/well and allowed to grow for 24 h before treatments. Thereafter, 100 μL medium containing various concentrations (0–50 μM) of compounds were added and incubated for another 24 h. MTT was dissolved in DD water (5 mg/mL) and 10 μL were added to each well. After 4 h, the medium was removed and 100 μL DMSO were filled in each well. The optical density was measured at 490 nm on a Flexstation 3 (Molecular Devices, Silicon Valley, CA, USA).

in vitro = settings: mouse, % Cell Viability
Experimental: as §1, §2

[3] = 25 μM compound, LPS 100 ng/mL, 24 h
[4] = 50 μM compound, LPS 100 ng/mL, 24 h
[5] = N9, 24 h, 25 μM compound, LPS 100 ng/mL, 24 h, read-out: % Inhibition of NO Production
[6] = N9, 24 h, 50 μM compound, LPS 100 ng/mL, 24 h, read-out: % Inhibition of NO Production
[7] = 25 μM compound, LPS 100 ng/mL, 24 h, 25 µM
[8] = 50 μM compound, LPS 100 ng/mL, 24 h, 50 µM
[9] = N9, 24 h, read-out: % Inhibition of NO Production, 25 μM compound, LPS 100 ng/mL, 24 h
[10] = N9, 24 h, read-out: % Inhibition of NO Production, 50 μM compound, LPS 100 ng/mL, 24 h
[11] = N9, 25 μM compound, LPS 100 ng/mL, 24 h, read-out: % Inhibition of NO Production
[12] = N9, 50 μM compound, LPS 100 ng/mL, 24 h, read-out: % Inhibition of NO Production

Structure (SMILES)	Nitrite [1, 3]	Nitrite [1, 4]	inhibition at 25 µM [1, 5]	inhibition at 50 µM [1, 6]	viability at 24 h, 25 µM [2]	viability at 24 h, 50 µM [2]	further results
Nc1ncnc2c1ncn2[C@@H]1O[C@H](CO)[C@@H](O)[C@H]1O [Compound 25, Adenosine]	27.43 ± 1.35 µM	20.69 ± 1.74 µM	13.9 ± 4.23%	35.1 ± 5.47%	81.6 ± 1.26%	80.5 ± 6.19%	
COc1ccc(C(=O)c2ccc(O)cc2)c(OC2OC(CO)C(O)C(O)C2O)c1O (stereo not drawn) [Compound 2, Zimoside A]	26.64 ± 1.13 µM	21.41 ± 0.92 µM	16.3 ± 3.55%	32.8 ± 2.88%	97.2 ± 3.27%	94.6 ± 5.47%	
CC1=C(CCC(C)COC2OC(CO)C(O)C(O)C2O)OC2CC3C4CCC5CC(OC6OC(CO)C(O)C(O)C6OC6OC(CO)C(O)C(O)C6O)CCC5(C)C4CCC3(C)C12 (stereo not drawn) [Compound 13, Timosaponin C]	24.24 ± 1.32 µM	13.36 ± 0.56 µM					% Cell Viability (N9 microglial cells; mouse, 24 h, 25 µM): 109.04 ± 4.85%; % Cell Viability (N9 microglial cells; mouse, 24 h, 50 µM): 97.19 ± 6.46%; % Inhibition of NO Production [1, 7]: 23.94 ± 4.13%; % Inhibition of NO Production [1, 8]: 58.10 ± 1.75 %; inhibitory activity on NO production (in words) ([1]; compared with compound 11): much weaker inhibitory activity
CC(C)CCC1(O)OC2C(O)C3C4CCC5CC(OC6OC(CO)C(O)C(O)C6OC6OC(CO)C(O)C(O)C6O)CCC5(C)C4CCC3(C)C2C1C (stereo not drawn) [Compound 4, Anemarrhenasaponin II]	9.52 ± 0.84 µM	3.80 ± 0.53 µM					cytotoxicity against N9 microglial cells (in words) (N9 microglial cells): potent cytotoxicity; cell viability reduced to (N9 microglial cells; mouse, 24 h): ≤ 60%; % Cell Viability (N9 microglial cells; mouse, 24 h, 25 µM): 63.92 ± 5.98 %; % Cell Viability (N9 microglial cells; mouse, 24 h, 50 µM): 8.57 ± 0.11 %; % Inhibition of NO Production [1, 8]: 87.98 ± 2.99 %
CC(CCC1(O)OC2CC3C4CCC5CC(OC6OC(CO)C(OC7OC(C)C(O)C(O)C7O)C(O)C6OC6OC(C)C(O)C(O)C6O)C(O)CC5(C)C4CCC3(C)C2C1C)COC1OC(CO)C(O)C(O)C1O (stereo not drawn) [Compound 8, Tuberoside G]	35.05 ± 0.68 µM	27.65 ± 0.74 µM					viability at 24 h, 25 µM (in vitro): 113 ± 4.14%; viability at 24 h, 50 µM (in vitro): 99.3 ± 2.46%; inhibition at 25 µM [1, 9]: -10.8 ± 2.14%; inhibition at 50 µM [1, 10]: 13.2 ± 2.32%
CC(CCC1(O)OC2CC3C4CCC5CC(OC6OC(CO)C(O)C(O)C6OC6OC(CO)C(O)C(O)C6O)CCC5(C)C4CCC3(C)C2C1C)COC1OC(CO)C(O)C(O)C1O (stereo not drawn) [Compound 6, Anemarnoside B]	40.89 ± 2.04 µM	26.38 ± 2.63 µM			115 ± 5.52%	104 ± 16.5%	inhibition at 25 µM [1, 9]: -28.3 ± 6.4%; inhibition at 50 µM [1, 10]: 17.2 ± 8.26%
O=c1cc(-c2ccc(O)cc2)oc2cc(O)c([C@@H]3O[C@H](CO)[C@@H](O)[C@H](O)[C@H]3O)c(O)c12 [Compound 20, Isovitexin]	28.39 ± 0.07 µM	22.82 ± 0.27 µM	10.2 ± 4.73%	29.8 ± 0.6%	135 ± 11.8%	95.7 ± 2.75%	
CC(C)CCC1(O)OC2C(O)C3C4CCC5CC(OC6OC(CO)C(O)C(O)C6OC6OC(CO)C(O)C(O)C6O)CCC5(C)C4CCC3(C)C2C1C (stereo not drawn) [Compound 5, Anemarrhenasaponin I]	29.82 ± 0.24 µM	19.14 ± 0.59 µM					cytotoxicity against N9 microglial cells (in words) (N9 microglial cells): not; % Cell Viability (N9 microglial cells; mouse, 24 h, 25 µM): 110.42 ± 4.67%; % Cell Viability (N9 microglial cells; mouse, 24 h, 50 µM): 115.47 ± 6.83%; % Inhibition of NO Production [1, 7]: 6.36 ± 0.76 %; % Inhibition of NO Production [1, 8]: 39.90 ± 1.85 %
COc1cc(O)c(C(=O)c2ccc(O)cc2)c(O)c1 [Compound 1, 2,6,4′-trihydroxy-4-methoxybenzophenone]	26.78 ± 1.27 µM	19.29 ± 0.10 µM	15.3 ± 9.4%	41.7 ± 3.9%	98.7 ± 8.27%	97.5 ± 1.85%	
CC1=C(CCC(C)COC2OC(CO)C(O)C(O)C2O)OC2CC3C4CCC5CC(OC6OC(CO)C(O)C(O)C6OC6OC(CO)C(O)C(O)C6O)CCC5(C)C4CCC3(C)C12 (stereo not drawn) [Compound 12, Macrostemonoside F]	19.64 ± 1.21 µM	11.82 ± 1.03 µM					% Cell Viability (N9 microglial cells; mouse, 24 h, 25 µM): 104.74 ± 3.16%; % Cell Viability (N9 microglial cells; mouse, 24 h, 50 µM): 105.77 ± 2.84%; % Inhibition of NO Production [1, 7]: 38.33 ± 3.80 %; % Inhibition of NO Production [1, 8]: 62.89 ± 3.22 %
C[C@@H]1O[C@@H](O[C@H]2[C@H](OC(=O)[C@]34CCC(C)(C)C[C@H]3C3=CC[C@@H]5[C@@]6(C)C[C@H](O)[C@H](O[C@@H]7O[C@H](CO)[C@@H](O)[C@H](O[C@@H]8O[C@H](CO)[C@@H](O)[C@H](O)[C@H]8O)[C@H]7O)[C@@](C)(CO)[C@@H]6CC[C@@]5(C)[C@]3(C)C[C@H]4O)OC[C@H](O)[C@@H]2O)[C@H](O)[C@H](O)[C@H]1O[C@@H]1OC[C@@H](O)[C@H](O[C@@H]2OC[C@](O)(CO)[C@H]2O)[C@H]1O [Compound 17, Polygalacin D2]	31.14 ± 0.78 µM	26.21 ± 0.82 µM	2.25 ± 2.46%	17.7 ± 3.14%	97.5 ± 1.83%	88 ± 8.92%	
CC1=C(CCC(C)COC2OC(CO)C(O)C(O)C2O)OC2CC3C4CCC5CC(OC6OC(CO)C(O)C(O)C6OC6OC(CO)C(O)C(O)C6O)C(O)CC5(C)C4CCC3(C)C12 (stereo not drawn) [Compound 10, Timosaponin D]	29.22 ± 0.60 µM	20.78 ± 2.00 µM					viability at 24 h, 25 µM (in vitro): 111 ± 4.39%; viability at 24 h, 50 µM (in vitro): 110 ± 2.57%; inhibition at 25 µM [1, 9]: 8.57 ± 1.87%; inhibition at 50 µM [1, 10]: 34.8 ± 6.27%
N[C@@H](Cc1c[nH]c2ccccc12)C(=O)O [Compound 24, Tryptophan]	30.49 ± 0.93 µM	24.19 ± 0.72 µM			105 ± 6.13%	92.4 ± 8.71%	inhibition at 25 µM [1, 9]: 4.24 ± 2.92%; inhibition at 50 µM [1, 10]: 24 ± 2.27%
CC(CCC1(O)OC2CC3C4CCC5CC(OC6OC(CO)C(OC7OC(CO)C(O)C(OC8OCC(O)C(O)C8O)C7OC7OC(CO)C(O)C(O)C7O)C(O)C6O)C(O)CC5(C)C4CCC3(C)C2C1C)COC1OC(CO)C(O)C(O)C1O (stereo not drawn) [Compound 7, Hostaplantagineoside C]	32.76 ± 0.85 µM	23.52 ± 0.37 µM			84.9 ± 1.82%	79.7 ± 6.03%	inhibition at 25 µM [1, 11]: -3.57 ± 8.75%; inhibition at 50 µM [1, 12]: 25.8 ± 2.4%
O=C(c1ccc(O)cc1)c1c(O)cc(O)cc1O [Compound 3, Iriflophene]	26.06 ± 1.24 µM	20.41 ± 0.38 µM	18.1 ± 3.88%	35.9 ± 1.2%	107 ± 3.62%	113 ± 5.32%	
COC1(CCC(C)COC2OC(CO)C(O)C(O)C2O)OC2CC3C4CC=C5CC(O)CC(OC6OC(C)C(O)C(OC7OCC(O)C(O)C7O)C6OC6OC(CO)C(O)C(O)C6O)C5(C)C4CCC3(C)C2C1C (stereo not drawn) [Compound 9, Spicatoside B]	34.46 ± 0.41 µM	24.20 ± 0.29 µM					viability at 24 h, 25 µM (in vitro): 99.7 ± 3.13%; viability at 24 h, 50 µM (in vitro): 94.3 ± 3.21%; inhibition at 25 µM [1, 9]: -8.22 ± 1.3%; inhibition at 50 µM [1, 10]: 24 ± 0.9%
C[C@@H]1O[C@@H](O[C@H]2[C@H](OC(=O)[C@]34CCC(C)(C)C[C@H]3C3=CC[C@@H]5[C@@]6(C)C[C@H](O)[C@H](O[C@@H]7O[C@H](CO)[C@@H](O)[C@H](O[C@@H]8O[C@H](CO)[C@@H](O)[C@H](O)[C@H]8O)[C@H]7O)C(CO)(CO)[C@@H]6CC[C@@]5(C)[C@]3(C)C[C@H]4O)OC[C@H](O)[C@@H]2O)[C@H](O)[C@H](O)[C@H]1O[C@@H]1OC[C@@H](O)[C@H](O[C@@H]2OC[C@](O)(CO)[C@H]2O)[C@H]1O [Compound 16, Platycodin D2]	33.68 ± 1.44 µM	24.94 ± 0.45 µM	-5.78 ± 4.51%	21.7 ± 1.4%	114 ± 4.62%	101 ± 1.83%	
O=c1cc(-c2ccc(O)cc2)oc2c([C@@H]3O[C@H](CO)[C@@H](O)[C@H](O)[C@H]3O)c(O)cc(O)c12 [Compound 21, Vitexin]	28.88 ± 1.38 µM	17.81 ± 1.13 µM			90.5 ± 2.51%	81.8 ± 4.38%	inhibition at 25 µM [1, 11]: 9.39 ± 4.33%; inhibition at 50 µM [1, 12]: 44.1 ± 3.56%
C=CCOC1O[C@H](CO)[C@@H](O)[C@H](O)[C@H]1O (stereo in doubt) [Compound 26, α-D-Glucose monoallyl ether]	29.57 ± 0.71 µM	22.60 ± 2.19 µM	7.13 ± 2.23%	29 ± 8.43%	107.2 ± 0.63%	105 ± 16.1%	
